Our source for the IC50 values is patent US12637454B2, “Heterocyclic monoacylglycerol lipase (MAGL) inhibitors” (Hoffmann-La Roche Inc., priority 2019, dated 2026).

pIC50: −log10 of the molar value.

The assay deals with T1, MAGL (Homo sapiens, UniProt Q99685).
T1 sequence (Q99685 1-303): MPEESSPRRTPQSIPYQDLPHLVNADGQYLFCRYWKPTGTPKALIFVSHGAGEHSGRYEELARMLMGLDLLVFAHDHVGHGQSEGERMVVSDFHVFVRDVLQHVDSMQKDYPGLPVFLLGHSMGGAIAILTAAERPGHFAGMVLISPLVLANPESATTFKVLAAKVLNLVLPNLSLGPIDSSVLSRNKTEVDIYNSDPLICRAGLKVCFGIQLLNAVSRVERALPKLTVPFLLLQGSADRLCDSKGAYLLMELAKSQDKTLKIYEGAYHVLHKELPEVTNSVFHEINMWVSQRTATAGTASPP
Briefly: 2-AG assay (MAGL inhibitory activity, hydrolysis of 2-arachidonoylglycerol followed by mass spectrometry). Conditions: 50 pM MAGL, 8 μM 2-arachidonoylglycerol, 15 min preincubation, 30 min incubation at RT. Type of assay: biochemical. A digest of the protocol:
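MAGL at 50 pM preincubated 15 min at RT with compound (12.5 μM to 0.8 pM, 3-fold) in 50 mM TRIS, 1 mM EDTA, 0.01% Tween. Reaction with 8 μM 2-arachidonoylglycerol ran 30 min at RT, quenched with ACN; arachidonic acid measured by SPE-MS/MS as ratio to d8-arachidonic acid.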
`O=C(c1cccc2c1CCN2)N1CCN2C[C@@](O)(c3ccc(F)c(Cl)c3)CC[C@@H]2C1` [Example 65, [(7S,9aR)-7-(3-chloro-4-fluorophenyl)-7-hydroxy-3,4,6,8,9,9a-hexahydro-1H-pyrido[1,2-a]pyrazin-2-yl]-(2,3-dihydro-1H-indol-4-yl)methanone] had a pIC50 of 7.16.
Then `O=C(c1cncc(-c2cc[nH]n2)c1Cl)N1CCN2C[C@@](O)(c3ccc(Cl)cc3)CC[C@@H]2C1` [Example 66, [(7S,9aR)-7-(4-chlorophenyl)-7-hydroxy-3,4,6,8,9,9a-hexahydro-1H-pyrido[1,2-a]pyrazin-2-yl]-[4-chloro-5-(1H-pyrazol-3-yl)pyridin-3-yl]methanone], with 6.76; and `O=C(c1cccc(-c2ccsn2)c1Cl)N1CCN2C[C@@](O)(c3ccc(Cl)cc3)CC[C@@H]2C1` [Example 67, [(7S,9aR)-7-(4-chlorophenyl)-7-hydroxy-3,4,6,8,9,9a-hexahydro-1H-pyrido[1,2-a]pyrazin-2-yl]-[2-chloro-3-(1,2-thiazol-3-yl)phenyl]methanone], with 7.83; and `O=C(c1cccc(-c2cnsc2)c1Cl)N1CCN2C[C@@](O)(c3ccc(Cl)cc3)CC[C@@H]2C1` [Example 68, [(7S,9aR)-7-(4-chlorophenyl)-7-hydroxy-3,4,6,8,9,9a-hexahydro-1H-pyrido[1,2-a]pyrazin-2-yl]-[2-chloro-3-(1,2-thiazol-4-yl)phenyl]methanone], with 7.08.
The compound `O=C(c1cccc(-c2ccsn2)c1Cl)N1CCN2C[C@@](O)(c3ccc(C(F)(F)F)cn3)CC[C@@H]2C1` [Example 69, [(7R,9aR)-7-hydroxy-7-[5-(trifluoromethyl)pyridin-2-yl]-3,4,6,8,9,9a-hexahydro-1H-pyrido[1,2-a]pyrazin-2-yl]-[2-chloro-3-(1,2-thiazol-3-yl)phenyl]methanone] gave a pIC50 of 6.90.
For `Cc1c(C(=O)N2CCN3C[C@@](O)(c4ccc(Cl)cc4)CC[C@@H]3C2)cncc1-c1cc[nH]n1` [Example 70, [(7S,9aR)-7-(4-chlorophenyl)-7-hydroxy-3,4,6,8,9,9a-hexahydro-1H-pyrido[1,2-a]pyrazin-2-yl]-[4-methyl-5-(1H-pyrazol-3-yl)pyridin-3-yl]methanone], the pIC50 was 6.00.
